Experimental data published in paper PMC10458971, “Chemical Constituents with Anti-Lipid Droplet Accumulation and Anti-Inflammatory Activity from Elaeagnus glabra” (Plants, 2023).
“Also recorded” adds a separate entry of the source. Like-named read-outs stand apart in the source and are kept apart here.

Legend:
Assay type in all cases: cell-based
AML12 cell line [1] = assay: LD assay: anti-lipid droplet accumulation in oleic-acid-treated AML12 cells (BODIPY 493/503)
Protocol: (§1) In this study, twelve compounds present in sufficient amounts (9, 11, 15, 16, 18–20, 22, 25, 30, 31, and 37) were evaluated for anti-LD accumulation activity (Table 3). To assess the anti-LD formation activity, the average LD counts/cell of bovine serum albumin (BSA)-conjugated oleic acid (OA) + drug vehicle (DMSO)-treated wells (hereinafter referred to as OA) were used as the standard for 100% fat loading, and triacsin C (TC) was used as the reference control. […] In Figure 5A, the blue pseudocolor indicates the nuclei area, and the green ones depict the LD area.
Figure 5 Effect of methyl pheophorbide a (37) on LD accumulation. (A) Representative images of the anti-LD formation activity of methyl pheophorbide a (37). (B) Quantification results of the LD assay and cell viability. AML12 cells were treated with BSA or OA (125 µM) with 20 µM methyl pheophorbide a (37) for 24 h. AML12 cells were used as a cell model for lipid accumulation—they were treated with 125 μM oleic acid (OA) for 24 h. Nuclei and LD were stained with Hoechst 33342 (blue) and BODIPY® 493/503 (green), respectively. The asterisk indicates a significant difference from the solvent control cells (*** p < 0.001, one-way ANOVA). TEXT PRINTED IN THE PICTURE: (B) BSA: Normalized LD Count (%): 17.3% *** | (B) OA: Normalized LD Count (%): 100.0% | (B) OA + 37: Normalized LD Count (%): 0.3% ***
(§2) Cells were cultured as described previously. The medium for AML12 (BCRC 60326; Bioresources Collection and Research Center (BCRC), Hsinchu, Taiwan) was a 1:1 mixture of DMEM and Ham’s F12 medium with 10% FBS and 1× ITS-A supplement (Thermo Fisher Scientific).
The LD accumulation of the test compounds was evaluated according to the studies published by co-author Professor Chia-Hung Yen. The LD accumulation was detected by BODIPY® 493/503 dye (Thermo Fisher Scientific). LD accumulation was achieved by treating cells with OA conjugated to BSA. All data were analyzed with GraphPad Prism 6.01 software (La Jolla, CA, USA). One-way analysis of variance (ANOVA) followed by Tukey’s comparison test was used to compare differences between multiple groups. A p-value < 0.05 was considered statistically significant.

[2] = Cell viability (nucleus counts, DAPI image) in AML12 cells; details: mouse
Protocol: as §1, §2

[3] = test system: fMLP/CB-induced human neutrophils; assay: Superoxide anion generation in fMLP/CB-induced human neutrophils; details: for IC50: fMLP/CB-induced human neutrophils, mean ± S.E.M. (n = 3–4); for Inhibitory activity toward superoxide anion generation or elastase release (preliminary screening, Inh%): 10 μM, Figure 6
Excerpt: (§3) NAFLD is accompanied by inflammation. In the NASH stage, the liver is inflamed. As the NAFLD progresses, persistent inflammation causes scar tissue around the liver; this is called the fibrosis stage. After years of inflammation, liver damage occurs and becomes cirrhosis. To explore the potential of compounds for managing inflammation, eight compounds were preliminarily evaluated for their effects on neutrophil pro-inflammatory responses by suppressing fMLP/CB-induced superoxide anion generation and elastase release (Figure 6 and Table 4). […] These two compounds were further evaluated for their anti-inflammatory activity IC50 values (Table 4).
(§4) Neutrophils were collected from healthy adults aged 20–35 and isolated using Ficoll-Paque density separation. The study was approved by Chang Gung Memorial Hospital’s Institutional Review Board (IRB No. 201902217A3) following the Declaration of Helsinki guidelines. The methods for testing the effects of isolates on superoxide anion generation and elastase release in neutrophils were based on studies published by Professor Tsong-Long Hwang. Ferricytochrome c (0.6 mg/mL) was used to measure superoxide anion. Elastase substrate (methoxysuccinyl-Ala-Ala-Pro-Val-p-nitroanilide, 100 µM; Merck) was employed to detect the elastase release. The elastase level was detected using a spectrophotometer at OD 405 nm. A PI3K inhibitor, namely, LY29002, was used as a positive control in the neutrophil assays. All assays were repeated at least three times. Results are presented as the mean ± standard error of the mean (S.E.M.). Student′s t-test was used to compare the test isolates with a DMSO (0.1%) control. A probability of less than 0.05 was considered significant.

[4] = test system: fMLP/CB-induced human neutrophils; assay: Elastase release in fMLP/CB-induced human neutrophils; details: mean ± S.E.M. (n = 3–4)
Excerpt: as §3, §4

AML12 cell line [5] = assay: Cell viability (nucleus counts, DAPI image) in AML12 cells; details: AML12; for Cell Viability (%, 24h, DAPI Image): compound 100 μg/mL, nucleus counts of DMSO = 100%
Protocol: as §1, §2

[6] = Mus musculus, compound 100 μg/mL, AML12, average LD counts/cell of oleic-acid-treated group = 100% fat-loading, read-out: Relative Lipid Droplet Count (%)
[7] = Mus musculus, AML12, read-out: Relative Lipid Droplet Count (%)
[8] = compound 100 μg/mL, 24 h, AML12, nucleus counts of DMSO = 100%, read-out: Cell Viability (%, 24h, DAPI Image)
[9] = compound 100 μg/mL, AML12, average LD counts/cell of oleic-acid-treated group = 100% fat-loading
[10] = AML12 cells, compound 100 μg/mL, 24 h, AML12, nucleus counts of DMSO = 100%, read-out: Cell Viability (%, 24h, DAPI Image)

Q: Which activity at 100 µg/mL (AML12 cell line [1]; [6]) does the source give for `Oc1cc(O)c2c(c1)O[C@@H](c1cc(O)c(O)c(O)c1)[C@H](O)C2` [(−)-gallocatechin (20), (−)-gallocatechin] here?
A: 117 ± 7.8%

Q: And the viability at 24 h, 100 μg/mL [2]?
A: 154 ± 6.2%

Q: With `C=C(C)C1CCC2(C(=O)O)CCC3(C)C(CCC4C5(C)CCC(OC(=O)C=Cc6ccc(O)c(O)c6)C(C)(C)C5CCC43C)C12` (single isomer, unassigned; (+)) [(+)-3β-O-trans-caffeoyl betulinic acid] as the molecule, how does the IC50 [3] read?
A: > 10 µM

Q: What about the IC50 [4] of the same molecule?
A: > 10 µM

Q: For `CC1(C)CC[C@]2(C(=O)O)CC[C@]3(C)C(=CCC4[C@@]5(C)CC[C@H](OC(=O)/C=C/c6ccc(O)c(O)c6)C(C)(C)C5CC[C@]43C)C2C1` (stereo partly shown) [3-O-(E)-caffeoyloleanolic acid (13), 3-O-(E)-caffeoyloleanolic acid], which “Inhibitory activity toward superoxide anion generation or elastase release (preliminary screening, Inh%)” value [3] is on record?
A: significant inhibitory activity

Q: And the IC50 [3]?
A: 3.01 ± 0.58 µM

Q: What about the IC50 [4] of the same molecule?
A: > 10 µM

Q: For `COc1cc(C=O)cc(OC)c1O` [syringaldehyde (25), syringaldehyde], which IC50 ([3]; Neutrophil) is on record?
A: > 10 µM

Q: And the activity at 100 µg/mL (AML12 cell line [1]; [7])?
A: 102 ± 5%

Q: And the viability at 24 h, 100 μg/mL [2, 8]?
A: 138 ± 5.7%

Q: And the IC50 ([4]; Neutrophil)?
A: > 10 µM

Q: With `CC1(C)CC[C@@]23CC[C@]4(C)[C@@](OC2=O)([C@@H]3C1)[C@H]1O[C@H]1[C@@H]1[C@@]2(C)CC[C@H](OC(=O)/C=C/c3ccc(O)c(O)c3)C(C)(C)[C@@H]2CC[C@]14C` [elaeagterpene A (2), (3S,4aR,6aR,6bS,8aS,12aR,12bS,12cS,13aS,13bR,13cS)-4,4,6a,6b,11,11,13c-Heptamethyl-15-oxooctadecahydro-1H,9H-12b,8a-(epoxymethano)piceno [13,14-b]oxiren-3-yl(E)-3-(3,4-dihydroxyphenyl)acrylate] as the molecule, how does the IC50 ([3]; Homo sapiens, Neutrophil) read?
A: > 10 µM

Q: What about the IC50 ([4]; Homo sapiens, Neutrophil) of the same molecule?
A: > 10 µM

Q: Which IC50 [3] does the source give for `CC1(C)CCC23CCC4(C)C5(C)CCC6C(C)(CO)C(O)C(O)CC6(C)C5C5OC5C4(OC2=O)C3C1` (stereo not drawn) [2α,3β,23-trihydroxy-11α,12α-epoxyolean-28,13β-olide] here?
A: > 10 µM

Q: And the IC50 [4]?
A: > 10 µM

Q: Which IC50 ([3]; Homo sapiens, Neutrophil) does the source give for `O=c1cc(N2CCOCC2)oc2c(-c3ccccc3)cccc12` [LY294002, reference compound] here?
A: 1.29 ± 0.52 µM

Q: What about the IC50 ([4]; Homo sapiens, Neutrophil) of the same molecule?
A: 2.61 ± 0.72 µM

Q: With `Oc1cc(O)c2c(c1)O[C@H](c1cc(O)c(O)c(O)c1)[C@H](O)C2` [(−)-epigallocatechin (19), (−)-epigallocatechin] as the molecule, how does the “Relative Lipid Droplet Count (%)” value (AML12 cell line [1]; [9]) read?
A: 93.5 ± 6.6%

Q: Which “Inhibitory activity toward superoxide anion generation or elastase release (preliminary screening, Inh%)” value [3] does the source give for `C=Cc1c(C)c2cc3nc(c4c5[nH]c(cc6nc(cc1[nH]2)C(C)=C6CC)c(C)c5C(=O)[C@@H]4C(=O)OC)[C@@H](CCC(=O)OC)[C@@H]3C` [methyl pheophorbide a (37), methyl pheophorbide a] here?
A: significant inhibitory activity

Q: What about the LD content reduction (AML12 cell line [1]; 20 μM, AML12) of the same molecule?
A: more than 90%

Q: What about the “Normalized LD Count (%) / normalized LD content” value (AML12 cell line [1]; 20 μM, AML12, OA 125 μM, 24 h, OA = 100%) of the same molecule?
A: 0.3%

Q: What about the activity at 100 µg/mL (AML12 cell line [1]; [6]) of the same molecule?
A: 0.3 ± 0.1%

Q: What about the Cytotoxicity (AML12 cell line [5]; 20 μM) of the same molecule?
A: without significant cytotoxic effects; also recorded: without cytotoxicity

Q: And the “Cell Viability (%, 24h, DAPI Image)” value (AML12 cell line [5])?
A: did not affect the cell viability

Q: And the viability at 24 h, 100 μg/mL [2, 10]?
A: 99.5 ± 5.4%

Q: What about the IC50 ([4]; Homo sapiens, Neutrophil) of the same molecule?
A: < 3 µM

Q: And the IC50 [4]?
A: 2.35 ± 0.12 µM

Q: Which “Relative Lipid Droplet Count (%)” value (AML12 cell line [1]; [9]) does the source give for “plumbocatechin A [plumbocatechin A (22)]” here?
A: 118.2 ± 3.1%

Q: And the “Cell Viability (%, 24h, DAPI Image)” value (AML12 cell line [5])?
A: 147.8 ± 9.6%

Q: Which results are given for `CC[C@H](CC[C@@H](C)[C@H]1CC[C@H]2[C@@H]3CC=C4C[C@@H](O)CC[C@]4(C)[C@H]3CC[C@]12C)C(C)C` [β-sitosterol (30), β-sitosterol]?
A: activity at 100 µg/mL (AML12 cell line [1]; [7]): 113 ± 7.6%; viability at 24 h, 100 μg/mL [2, 8]: 128 ± 9.1%

Q: Which activity at 100 µg/mL (AML12 cell line [1]; [6]) does the source give for `C=C(C)[C@@H]1CC[C@]2(C)CC[C@]3(C)[C@H](CC[C@@H]4[C@@]5(C)CC[C@H](O)C(C)(C)[C@@H]5CC[C@]43C)[C@@H]12` [lupeol (9), lupeol] here?
A: 95.2 ± 1.8%

Q: What about the viability at 24 h, 100 μg/mL [2, 10] of the same molecule?
A: 114 ± 3.6%

Q: Which activity at 100 µg/mL (AML12 cell line [1]; [6]) does the source give for `Oc1cc(O)c2c(c1)O[C@H](c1ccc(O)c(O)c1)[C@H](O)C2` [(−)-epicatechin (18), (−)-epicatechin] here?
A: 116 ± 6%

Q: What about the viability at 24 h, 100 μg/mL [2, 10] of the same molecule?
A: 146 ± 10.3%

Q: With `CC[C@H](CC[C@@H](C)[C@H]1CC[C@H]2[C@@H]3CCC4=CC(=O)CC[C@]4(C)[C@H]3CC[C@]12C)C(C)C` [β-sitosterone (31), β-sitosterone] as the molecule, how does the “Relative Lipid Droplet Count (%)” value (AML12 cell line [1]; [9]) read?
A: 121.5 ± 4.3%

Q: What about the “Cell Viability (%, 24h, DAPI Image)” value (AML12 cell line [5]) of the same molecule?
A: 135.3 ± 7.3%

Q: With `Oc1cc(O)c2c(c1)O[C@@H](c1ccc(O)c(O)c1)[C@H](O)C2` [(−)-catechin (16), (−)-catechin] as the molecule, how does the activity at 100 µg/mL (AML12 cell line [1]; [6]) read?
A: 111 ± 5.1%

Q: And the viability at 24 h, 100 μg/mL [2, 10]?
A: 154 ± 12.3%

Q: With `CC1(C)CC[C@]2(C(=O)O)CC[C@]3(C)C(=C[C@@H](O)[C@@H]4[C@@]5(C)C[C@@H](O)[C@H](O)[C@@](C)(CO)[C@@H]5CC[C@]43C)[C@@H]2C1` [cleistocalyxic acid E (7), cleistocalyxic acid E] as the molecule, how does the IC50 [3] read?
A: > 10 µM

Q: And the IC50 [4]?
A: > 10 µM

Q: With `O=C(O)c1ccc(CCO)cc1` [4-(2-hydroxyethyl)benzoic acid (26), 4-(2-hydroxyethyl)benzoic acid] as the molecule, how does the IC50 ([3]; Homo sapiens, Neutrophil) read?
A: > 10 µM

Q: What about the IC50 ([4]; Homo sapiens, Neutrophil) of the same molecule?
A: > 10 µM

Q: What does the source list for `C[C@H]1[C@H](C)CC[C@]2(C(=O)O)CC[C@]3(C)C(=CC[C@@H]4[C@@]5(C)CC[C@H](O)C(C)(C)[C@@H]5CC[C@]43C)[C@H]12` [ursolic acid (11), ursolic acid]?
A: activity at 100 µg/mL (AML12 cell line [1]; [6]): 99.2 ± 4%; viability at 24 h, 100 μg/mL [2, 10]: 146 ± 4.5%

Q: With `CCC/C=C/C/C=C/C=C/C=N/NN=O` [TC, Triacsin C, reference compound] as the molecule, how does the activity at 0.008 µM (AML12 cell line [1]; [7]) read?
A: 60.6 ± 0.2%

Q: And the viability at 24 h, 0.008 µM ([2]; positive control, drug concentration 8 nM, 24 h, AML12, DMSO = 100%)?
A: 126 ± 6.1%

Q: With “plumbocatechins B [plumbocatechins B (15)]” as the molecule, how does the “Relative Lipid Droplet Count (%)” value (AML12 cell line [1]; [9]) read?
A: 105.9 ± 7.8%

Q: What about the “Cell Viability (%, 24h, DAPI Image)” value (AML12 cell line [5]) of the same molecule?
A: 132.5 ± 11.8%
